Assay [1] has as its target T1, Lysyl oxidase homolog 3 (Homo sapiens, UniProt P58215).
T1 sequence (P58215 whole entry): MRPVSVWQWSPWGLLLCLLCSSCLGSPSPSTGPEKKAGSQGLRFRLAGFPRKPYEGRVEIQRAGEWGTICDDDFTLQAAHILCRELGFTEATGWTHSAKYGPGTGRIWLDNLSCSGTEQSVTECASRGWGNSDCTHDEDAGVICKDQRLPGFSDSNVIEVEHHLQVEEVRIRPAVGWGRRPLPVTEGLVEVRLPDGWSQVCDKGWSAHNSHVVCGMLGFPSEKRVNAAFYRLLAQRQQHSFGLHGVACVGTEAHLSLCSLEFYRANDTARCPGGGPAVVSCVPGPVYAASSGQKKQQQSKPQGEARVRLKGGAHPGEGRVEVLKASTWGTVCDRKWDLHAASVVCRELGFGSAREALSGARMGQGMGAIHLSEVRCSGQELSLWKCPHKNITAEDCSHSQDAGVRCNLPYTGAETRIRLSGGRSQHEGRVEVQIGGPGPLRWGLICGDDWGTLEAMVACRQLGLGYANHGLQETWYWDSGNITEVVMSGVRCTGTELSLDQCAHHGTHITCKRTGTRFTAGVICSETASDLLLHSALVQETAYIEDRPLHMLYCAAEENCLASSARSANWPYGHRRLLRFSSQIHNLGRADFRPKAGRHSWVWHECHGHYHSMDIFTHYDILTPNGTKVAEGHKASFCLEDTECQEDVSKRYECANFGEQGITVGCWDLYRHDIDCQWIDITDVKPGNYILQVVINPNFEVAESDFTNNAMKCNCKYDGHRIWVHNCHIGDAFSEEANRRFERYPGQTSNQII
In words: Inhibition of recombinant human LOXL3 expressed in CHO cells using diaminopentane as substrate preincubated for 30 mins followed by substrate addition measured after 1 hr by fluorimetric method.

Assay [2] concerns the target T2, Lysyl oxidase homolog 4 (Homo sapiens, UniProt Q96JB6).
T2 sequence (Q96JB6 whole entry): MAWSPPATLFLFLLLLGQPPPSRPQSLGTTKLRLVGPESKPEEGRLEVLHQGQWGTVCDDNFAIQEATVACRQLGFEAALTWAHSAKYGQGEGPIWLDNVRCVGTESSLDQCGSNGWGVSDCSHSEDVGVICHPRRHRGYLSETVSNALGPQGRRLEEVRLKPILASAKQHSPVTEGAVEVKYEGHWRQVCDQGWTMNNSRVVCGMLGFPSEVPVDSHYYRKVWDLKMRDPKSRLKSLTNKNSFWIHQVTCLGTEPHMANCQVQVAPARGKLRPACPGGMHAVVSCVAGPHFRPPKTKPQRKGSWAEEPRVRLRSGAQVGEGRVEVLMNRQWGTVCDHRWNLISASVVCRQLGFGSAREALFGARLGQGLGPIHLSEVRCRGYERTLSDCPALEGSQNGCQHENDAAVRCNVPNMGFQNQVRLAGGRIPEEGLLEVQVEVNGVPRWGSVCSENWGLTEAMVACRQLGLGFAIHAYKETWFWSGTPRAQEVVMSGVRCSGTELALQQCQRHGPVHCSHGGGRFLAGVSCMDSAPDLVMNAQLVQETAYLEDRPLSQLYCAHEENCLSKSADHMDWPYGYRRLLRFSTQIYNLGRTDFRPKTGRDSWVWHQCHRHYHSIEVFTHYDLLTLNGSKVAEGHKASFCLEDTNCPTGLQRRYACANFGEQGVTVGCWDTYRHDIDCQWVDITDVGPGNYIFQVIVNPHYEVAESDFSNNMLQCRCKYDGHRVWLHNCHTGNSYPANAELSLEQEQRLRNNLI
Nature of the assay: Inhibition of recombinant human LOXL4 expressed in baculovirus infected insect cells using diaminopentane as substrate preincubated for 30 mins followed by substrate addition measured after 1 hr by fluorimetric method.

In assay [3] the target is T3, Lysyl oxidase homolog 4 (Homo sapiens) (UniProt Q96JB6).
T3 sequence (whole entry): T2 sequence (Q96JB6 whole entry)
Nature of the assay: Inhibition of recombinant human LOXL4 expressed in baculovirus infected insect cells at 10 uM using diaminopentane as substrate preincubated for 30 mins followed by substrate addition measured after 1 hr by fluorimetric method relative to control.

Assay [4] concerns the target T4, Lysyl oxidase homolog 2 (Homo sapiens, UniProt Q9Y4K0).
T4 sequence (Q9Y4K0 whole entry): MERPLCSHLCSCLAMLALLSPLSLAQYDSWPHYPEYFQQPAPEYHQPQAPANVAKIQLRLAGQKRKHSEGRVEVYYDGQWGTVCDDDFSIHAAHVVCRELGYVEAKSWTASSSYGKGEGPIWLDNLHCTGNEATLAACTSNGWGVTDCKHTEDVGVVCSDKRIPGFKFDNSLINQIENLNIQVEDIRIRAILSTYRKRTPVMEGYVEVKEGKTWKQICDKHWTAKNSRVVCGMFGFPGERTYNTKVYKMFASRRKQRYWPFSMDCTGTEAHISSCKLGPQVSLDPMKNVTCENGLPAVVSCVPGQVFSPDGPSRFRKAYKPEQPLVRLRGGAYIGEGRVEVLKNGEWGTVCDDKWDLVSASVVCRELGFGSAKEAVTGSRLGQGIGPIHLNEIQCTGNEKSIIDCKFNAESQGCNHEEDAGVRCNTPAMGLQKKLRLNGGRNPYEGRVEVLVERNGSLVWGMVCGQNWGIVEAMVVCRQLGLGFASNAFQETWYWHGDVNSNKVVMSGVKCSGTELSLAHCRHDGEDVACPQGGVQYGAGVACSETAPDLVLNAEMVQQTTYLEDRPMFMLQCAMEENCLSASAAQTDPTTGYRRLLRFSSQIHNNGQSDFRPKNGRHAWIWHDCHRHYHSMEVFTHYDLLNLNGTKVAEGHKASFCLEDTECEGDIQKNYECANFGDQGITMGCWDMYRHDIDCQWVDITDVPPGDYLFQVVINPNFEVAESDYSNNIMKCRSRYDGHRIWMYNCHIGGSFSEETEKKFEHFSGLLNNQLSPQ
In words: Inhibition of recombinant LOXL2 (unknown origin) expressed in NS0 cells using diaminopentane as substrate preincubated for 30 mins followed by substrate addition measured after 1 hr by fluorimetric method.

Assay [5] concerns the target T5, Lysyl oxidase homolog 2 (Homo sapiens) (UniProt Q9Y4K0).
T5 sequence (whole entry): T4 sequence (Q9Y4K0 whole entry)
In words: Inhibition of recombinant LOXL2 (unknown origin) expressed in NS0 cells at 10 uM using diaminopentane as substrate preincubated for 30 mins followed by substrate addition measured after 1 hr by fluorimetric method relative to control.

In assay [6] the target is T6, Protein-lysine 6-oxidase (Homo sapiens, UniProt P28300).
T6 sequence (P28300 whole entry): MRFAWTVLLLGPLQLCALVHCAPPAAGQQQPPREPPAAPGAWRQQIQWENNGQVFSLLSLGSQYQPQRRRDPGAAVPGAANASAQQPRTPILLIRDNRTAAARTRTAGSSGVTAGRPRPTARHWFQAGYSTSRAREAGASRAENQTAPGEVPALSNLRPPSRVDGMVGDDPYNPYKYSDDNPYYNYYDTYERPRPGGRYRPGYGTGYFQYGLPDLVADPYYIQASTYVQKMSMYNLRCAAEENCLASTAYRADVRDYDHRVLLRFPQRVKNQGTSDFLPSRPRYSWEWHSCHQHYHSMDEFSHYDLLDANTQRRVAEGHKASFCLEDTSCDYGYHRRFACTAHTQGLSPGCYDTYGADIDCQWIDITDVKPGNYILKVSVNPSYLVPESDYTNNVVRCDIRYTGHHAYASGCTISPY
Nature of the assay: Inhibition of recombinant human LOX expressed in HEK293 cells using diaminopentane as substrate preincubated for 30 mins followed by substrate addition measured after 1 hr by fluorimetric method. Format: cell-based.

pIC50: −log10 of the molar value.

`CCN(CC)C(=S)SSC(=S)N(CC)CC` [DISULFIRAM]: the pIC50 (commonly the IC50 on a negative log10 scale, so that one unit is a factor of ten) in assay [1] was 7.03; in assay [2] it was 7.23; in assay [4] it was 6.82; in assay [6], 6.49. The inhibition in assay [3] and in assay [5] was under 40% each time.

For the compound `O=c1c2ccc(-c3cccs3)nc2[nH]n1-c1ccccc1`, the pIC50 in assay [2] was under 4.00; in assay [4], 5.11; in assay [6], under 4.00. The inhibition in assay [3] and in assay [5] was under 40% each time.

`COc1ccccc1-c1cc(=O)c2c(=O)n(-c3ccccc3)[nH]c2[nH]1`: the negative-log IC50 (pIC50) was under 4.00 in assay [2] and 4.35 in assay [4]. Also, the inhibition in assay [3] and in assay [5] was under 40% throughout.

For the compound `Cc1cc(C)c2c(=O)n(-c3ccccc3)[nH]c2n1`, the pIC50 in assay [1] was under 4.00; in assay [2], under 4.00; in assay [4], 4.60; in assay [6] it was 4.46. Besides, the inhibition in assay [3] and in assay [5] was under 40% throughout.

For the compound `CCOC(=O)c1sc(N/N=C2\C(=O)N(c3ccccc3)N=C2N)c(C(=O)OCC)c1C`, the negative logarithm of the IC50 (pIC50) is under 4.00 in assay [1], 5.48 in assay [2] and under 4.00 in assay [4]. Besides, the inhibition in assay [3] and in assay [5] was under 40% in each case.

As for `Cc1cc(-c2ccc3c(=O)n(-c4ccccc4)[nH]c3n2)c(C)o1`, the figures for the negative logarithm of the IC50 (pIC50) in assay [2] and in assay [4] were 4.26 and 5.42, respectively. Also, the inhibition in assay [3] and in assay [5] was under 40% each time.

`CC(C)(C)C1=NN(c2ccccc2)C(=O)C1`: the negative-log IC50 (pIC50) in assay [1] was under 4.00; in assay [2] it was under 4.00; in assay [4] it was under 4.00; in assay [6], 4.12. The inhibition in assay [3] and in assay [5] was under 40% in each case.

As to `CC1=NN(c2ccccc2)C(=O)C1C` (stereo not drawn), the pIC50 in assay [1] was 5.89; in assay [2] it was 5.68; in assay [4], 5.68; in assay [6], 5.59. For the same compound, the inhibition in assay [3] and in assay [5] was under 40% throughout.

Turning to `[O-][n+]1ccccc1S` [PYRITHIONE], the pIC50 in assay [1] is 4.92; in assay [2] it was 4.82; in assay [4], 4.74; in assay [6], 4.48. The inhibition in assay [3] and in assay [5] was under 40% in each case.

In the case of `CCN1/C(=C2\C(=O)N(c3ccccc3)N=C2Nc2ccccc2)C=Cc2ccccc21`, the negative-log IC50 (pIC50) in assay [2] is under 4.00; in assay [4] it was 6.00. In addition, the inhibition in assay [3] and in assay [5] was under 40% throughout.

`CC1=NN(c2ccccc2)C(=O)/C1=C/NNc1nnc(C)c(O)n1`: the pIC50 in assay [2] was under 4.00; in assay [4] it was 4.47. Further, the inhibition in assay [3] and in assay [5] was under 40% throughout.

`N#CCCN`: the pIC50 in assay [1] is 6.77; in assay [2] it was under 4.00; in assay [4], 7.14; in assay [6], under 4.00. Moreover, in assay [3], the inhibition – broadly, the share of the control response that was lost under treatment – was under 40%.

Regarding `CN(C)C(=S)SSC(=S)N(C)C` [THIRAM], the negative logarithm of the IC50 (pIC50) in assay [1] is 6.96; in assay [2], 6.74; in assay [4], 6.77; in assay [6], 5.98. Further, the inhibition in assay [3] and in assay [5] was under 40% each time.

Regarding `O=c1c2cccnc2[nH]c(=S)n1-c1ccccc1`, the pIC50 in assay [1] was 4.74; in assay [2], under 4.00; in assay [4], 4.12; in assay [6] it was under 4.00. For the same compound, the inhibition in assay [3] and in assay [5] was under 40% each time.
